Here are results for three compounds from PMC10038035 (Journal of Enzyme Inhibition and Medicinal Chemistry, 2023).

Read-outs that look alike come from different tables or passages of the source.

Test [1] deals with T1, prion protein (recombinant mouse PrP, recPrP) (Mus musculus, UniProt P04925).
T1 construct: gene Prnp
Briefly: biochemical.

Test [2] has as its target T1, prion protein (recombinant mouse PrP, recPrP). Briefly: biochemical. The source holds these as a separate data set.
Test [3] has the same target. The test is classed as biochemical.

In general, EC50 refers to the midpoint of the concentration-response curve.

T1 sequence (P04925 23-231 limits assumed): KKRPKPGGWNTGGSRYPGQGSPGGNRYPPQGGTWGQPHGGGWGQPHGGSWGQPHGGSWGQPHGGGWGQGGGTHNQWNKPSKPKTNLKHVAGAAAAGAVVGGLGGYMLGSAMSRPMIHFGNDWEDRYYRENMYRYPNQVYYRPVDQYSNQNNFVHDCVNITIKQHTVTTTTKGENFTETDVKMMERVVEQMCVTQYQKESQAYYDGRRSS

For `O=C(NNC(=S)Nc1ccc(Cl)cc1)c1cc2cccc(O)c2cc1O` [7x], the EC50 in test [1] is 4.6 µM.
`CCOc1cc(C(=O)NNC(=S)Nc2ccc(Cl)cc2)c(O)c2ccccc12` [7y]: the EC50 in test [2] stood at 5 µM.
In the case of `Cc1cc(Nc2ccc(NC(=O)c3ccc(Nc4ccnc5ccccc45)cc3)cc2)nc(N)n1` [SGI-1027], the “PrP aggregate formation assay (ThT fluorescence) with purified recPrP, single co” value in test [3] was “The anti-PrP aggregation activity of 7x and 7y was further compared to that of SGI-1027 (a positive control)”.
